Source: US20250295662A1, “USE OF CDK4/6 INHIBITOR IN TREATMENT OF DEDIFFERENTIATED LIPOSARCOMA” (priority 2022, published 2025)

Assays:
[1] = test system: dedifferentiated liposarcoma; assay: Clinical trial in dedifferentiated liposarcoma: efficacy (RECIST 1.1); type: in vivo, human; settings: 180 mg oral once daily
Text: (§1) In this study, a randomized, double-blind, placebo-controlled parallel trial design or a single arm trial design was employed. For the parallel control trial, after all patients signed the informed consent, subjects eligible for enrollment by screening were randomized (1:1) into two groups, i.e., a test group given the capsule of the compound of formula I and a control group given the placebo of the capsule of the compound of formula I, with 4 weeks (28 days) being 1 cycle; for the single arm trial, the administration regimen was the same as that for the test group of the parallel control trial. The efficacy and safety of the capsule of the compound of formula I in the treatment of dedifferentiated liposarcoma was evaluated by the clinical trials of the present disclosure.
(§2) Hemoglobin (HGB) ≥90.0 g/L; • b. Absolute neutrophil count (ANC) ≥1.5×10^9/L; • c. Platelet count (PLT) ≥90×10^9/L; • 2) Biochemical examination criteria: • a. Total bilirubin (TBIL) ≤1.5×upper limit of normal ULN; for patients with Gilbert syndrome, ≤3×ULN; • b. Alanine aminotransferase (ALT) and aspartate aminotransferase (AST) ≤3×ULN. If liver metastasis is accompanied, ALT and AST ≤5×ULN; • c.
(§3) Capsules of the compound of formula (I): strength: 50 mg or 60 mg, provided by Chia Tai Tianqing Pharmaceutical Group Co., Ltd.
(§4) Capsules of the compound of formula (I): 180 mg/each administration (based on the compound of formula (I)), oral administration at fasting, once daily, and 28 consecutive days of administration as one treatment cycle. Placebo of the capsule of the compound of formula (I): 0 mg/each administration (based on the compound of formula (I)), oral administration at fasting, once daily, and 28 consecutive days of administration as one treatment cycle.
Efficacy evaluation criteria: disease state was determined using the RECIST 1.1 criteria.

[2] = test system: dedifferentiated liposarcoma; assay: Clinical trial in dedifferentiated liposarcoma: safety (NCI-CTC AE 5.0); type: in vivo, human; settings: patients, 28-day cycle
Text: as §1, §2, §3, §4
Safety evaluation criteria: the severity of adverse events was determined using the NCI-CTC AE 5.0 criteria. Adverse event record forms including time of occurrence, severity, relevance to the studied treatment, duration, measures taken, and the final state of the subject should be faithfully filled out during the trial.

[3] = capsules 180 mg oral once daily

CC(C)c1c2cc(-c3nc(Nc4ccc(N5CCNCC5)cn4)ncc3F)ccc2nn1C [compound of formula (I)]
PFS, OS, ORR, DCR and DOR of the patients that could be evaluated ([1]; 28-day cycle): all good | 12-week PFS rate ([1]; 15 subjects who had achieved the evaluation of C3 (12 weeks) efficacy): 60% | patients who achieved 12-week PFS ([1]; of the 15 subjects evaluated at C3 (12 weeks)): 9 patients | Gastrointestinal reactions (diarrhea, vomiting, and the like), grade ([2]; capsules 180 mg oral at fasting once daily, mainly this grade, controlled after symptomatic treatment): 1-2 grade | total incidence rate of TEAEs of grade 3 or above [2, 3]: 9% | total safety [2, 3]: good
